Assays:
[1] = test system: Human Valvular Interstitial Cells (hVICs); experiment: human monocytes secretome-induced hVICs calcification (o-cresolphthalein complexone calcium measurement); assay type: cell-based
Text: Human aortic valves form AS patients who underwent aortic valve surgical replacement were collected at Rouen University Hospital, starting on May 2 2016, after agreement of The CPP Nord-Ouest I (RCB: 2016-A00137-44). Human Valvular Interstitial Cells (hVICs) were isolated and cultured as already described. (Morvan, Arangalage et al. 2019) Briefly, aortic valve leaflets previously collected and washed in PBS containing antibiotics were cut into pieces and digested with type I collagenase (0.22 U/mg) for 3 hours at 37° C. Digested valves are filters on 70 μm cell strainers to remove undigested valve parts and obtain a homogenous cell suspension resuspended in complete smooth muscle cell basal 2 medium (PromoCell, Heidelberg, Germany) with 10% Fetal Bovine Serum (FBS) Penicillin/Streptomycin (P/S, Sigma-Aldrich Cat #P4333). Cell suspension is then seeded into rat type collagen I (3 mg/ml, Gibco, Cat #A1048301) coated flask and incubated at 37° C., 5% CO2 for several days until reaching cell confluency. At this step hVICs are obtained and cultured in DMEM (Dulbecco's modified Eagle's medium, Gibco, Cat #41966-029) with 10% FBS and P/S until passage 4. […]
(§1) Previously isolated hVICs were treated for 10 days with human monocytes and M1 macrophages CM diluted v/v with DMEM (Gibco, Cat #41966-029) in the presence or not of inorganic […] (Pi) at a final concentration up to 1.9 mM (0.9 mM of […] already present in DMEM). Treatment with conditioned medium was renewed every 2 days and calcium content in each well was measured with the o-cresolphthalein complexone colorimetric method. […]
(§2) Data are obtained from indicated number of hVICs isolated from distinct patients. […] Data are expressed as mean values of control (DMSO (vehicle) treated monocytes or M1 macrophages)±SEM. When indicated, statistical significance was determined by non-parametric Kruskal-Wallis test followed by Dunns post-hoc test using Graphpad Prism 5 software. The use of non-parametric Kruskal-Wallis test was determined depending Shapiro-Wilk normality test data distribution.

[2] = test system: Human Valvular Interstitial Cells (hVICs); experiment: human M1 macrophages secretome-induced hVICs calcification (o-cresolphthalein complexone calcium measurement); assay type: cell-based; conditions: M1 macrophages pre-treatment (5 μM, 72 h); n=1 VICs patient in triplicates, CM from n=1 volunteer; FIG. 4
Text: Human aortic valves form AS patients who underwent aortic valve surgical replacement were collected at Rouen University Hospital, starting on May 2 2016, after agreement of The CPP Nord-Ouest I (RCB: 2016-A00137-44). Human Valvular Interstitial Cells (hVICs) were isolated and cultured as already described. (Morvan, Arangalage et al. 2019) Briefly, aortic valve leaflets previously collected and washed in PBS containing antibiotics were cut into pieces and digested with type I collagenase (0.22 U/mg) for 3 hours at 37° C. […]
as §1
as §2, with “The use of non-parametric Kruskal-Wallis test was determined depending Shapiro-Wilk normality test data distribution.” left out

With CC[C@H](C)n1cc(C)c2c(C(=O)NCc3c(C)cc(C)[nH]c3=O)cc(-c3ccc(N4CCNCC4)nc3)cc21 [GSK-126] the “CAVD patient monocytes secretome-induced hVICs calcification” value ([1]; monocytes from CAVD patients pre-treated with 5 μM for 72 h, CM1, hVICs with 1.9 mM Pi for 10 days, vs vehicle (DMSO), FIG. 2) was “significantly reduced”, the “volunteer monocytes secretome-induced hVICs calcification” value ([1]; monocytes from volunteers pre-treated with 5 μM for 72 h, CM1, hVICs with 1.9 mM Pi for 10 days, vs vehicle (DMSO), FIG. 1) was “significantly reduced” and the “volunteer monocytes secretome-induced hVICs calcification 24 h after monocytes pre-treatment” value ([1]; monocytes from volunteers, 72 h pre-treatment then new conditioned medium for 24 h (CM2) in the absence of inhibitor, 1.9 mM Pi, FIG. 3) was “the same result was obtained”. The “M1 secretome-induced hVICs calcification” value [2] was “reduced”.

— patent publication US20240350508A1, “USE OF EZH2 INHIBITORS FOR THE TREATMENT OF AORTIC VALVE STENOSIS” (INSERM (INSTITUT NATIONAL DE LA SANTÉ ET DE LA RECHERCHE …, priority 2021, published 2024)
